Data reported in ChEMBL document CHEMBL1201862, “PubChem BioAssay data set” (2004).
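Method: 48-hour compound exposure of cells in 96-well plates, five concentrations, linear interpolation of endpoints. GI50 is the concentration that inhibits growth by half.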 Active and inactive are the calls of the source. Cut-off read from the data, not from the text of the source: active = GI50 up to about 1.1 µM and inactive = higher.

Columns and labels:
Test in all cases: inhibition of tumour cell growth, NCI panel, 48 h
BT-549 = tested on: BT-549
DU-145 = tested on: DU-145
HCT-116 = tested on: HCT-116
HCT-15 = tested on: HCT-15
HL-60 = tested on: HL-60
M14 = tested on: M14
MDA-MB-231 = tested on: MDA-MB-231
Malme-3M = tested on: Malme-3M
NCI-H460 = tested on: NCI-H460
PC-3 = tested on: PC-3
RPMI-8226 = tested on: RPMI-8226
SF-268 = tested on: SF-268
SF-295 = tested on: SF-295
SF-539 = tested on: SF-539
SK-MEL-28 = tested on: SK-MEL-28
SK-MEL-2 = tested on: SK-MEL-2
SNB-75 = tested on: SNB-75
SR = tested on: SR
U-251 = tested on: U-251
SK-OV-3 = tested on: SK-OV-3

| SMILES | GI50 (BT-549) | GI50 (DU-145) | GI50 (HCT-116) | GI50 (HCT-15) | GI50 (HL-60) | GI50 (M14) | GI50 (MDA-MB-231) | GI50 (Malme-3M) | GI50 (NCI-H460) | GI50 (PC-3) | GI50 (RPMI-8226) | GI50 (SF-268) | GI50 (SF-295) | GI50 (SF-539) | GI50 (SK-MEL-28) | GI50 (SK-MEL-2) | GI50 (SNB-75) | GI50 (SR) | GI50 (U-251) | GI50 (SK-OV-3) |
| --- | --- | --- | --- | --- | --- | --- | --- | --- | --- | --- | --- | --- | --- | --- | --- | --- | --- | --- | --- | --- |
| CCOC(=O)CCc1c(C)c2ccc(O)cc2oc1=O | > 100 µM (inactive) | > 100 µM (inactive) | > 100 µM (inactive) | > 100 µM | > 100 µM (inactive) | > 100 µM (inactive) | > 100 µM (inactive) | > 100 µM (inactive) | > 100 µM (inactive) | > 100 µM (inactive) | > 100 µM (inactive) | > 100 µM (inactive) | > 100 µM (inactive) | > 100 µM (inactive) | > 100 µM (inactive) | > 100 µM (inactive) | > 100 µM (inactive) | > 100 µM (inactive) | > 100 µM (inactive) | – |
| O=C1Nc2ccccc2/C1=N/NC(=S)Nc1ccc([N+](=O)[O-])cc1 | 14.4 µM (inactive) | 14.8 µM (inactive) | 5.71 µM (inactive) | 2.33 µM | > 100 µM (inactive) | 6.62 µM (inactive) | 0.208 µM (active) | 5.28 µM (inactive) | 2.51 µM (inactive) | 3.17 µM (inactive) | 13.5 µM (inactive) | 13 µM (inactive) | 6.64 µM (inactive) | 13.8 µM (inactive) | 14.2 µM (inactive) | 4.25 µM (inactive) | 13.9 µM (inactive) | 4.72 µM (inactive) | 5.85 µM (inactive) | 4.76 µM (inactive) |
| CCOC(=O)NN(C(=O)OCC)C(C(=O)c1ccccc1)N(NC(=O)OCC)C(=O)OCC | > 100 µM (inactive) | > 100 µM (inactive) | > 100 µM (inactive) | > 100 µM | > 100 µM (inactive) | > 100 µM (inactive) | > 100 µM (inactive) | > 100 µM (inactive) | > 100 µM (inactive) | > 100 µM (inactive) | > 100 µM (inactive) | > 100 µM (inactive) | > 100 µM (inactive) | > 100 µM (inactive) | > 100 µM (inactive) | – | > 100 µM (inactive) | > 100 µM (inactive) | > 100 µM (inactive) | > 100 µM (inactive) |
| NC(=O)/C=c1/c2ccccc2n2nc3ccccc3c12 | 29.9 µM (inactive) | 37.8 µM (inactive) | 4.82 µM (inactive) | 12.2 µM | 3.91 µM (inactive) | 27.5 µM (inactive) | 2.76 µM (inactive) | 21.9 µM (inactive) | 25.8 µM (inactive) | 11 µM (inactive) | 4.98 µM (inactive) | 10.2 µM (inactive) | 31.1 µM (inactive) | 13.3 µM (inactive) | 16.8 µM (inactive) | 15.6 µM (inactive) | – | 2.68 µM (inactive) | 12.9 µM (inactive) | 16.3 µM (inactive) |
| CCOP(=O)(CCC(O)CNc1nc(N)nc(Cl)c1/N=N/c1ccc(Cl)cc1)OCC (centres undefined) | 7.38 µM (inactive) | 14.2 µM (inactive) | 14.7 µM (inactive) | 6.95 µM | 3.5 µM (inactive) | – | 19.3 µM (inactive) | 5.2 µM (inactive) | 11.1 µM (inactive) | 12.4 µM (inactive) | 8.47 µM (inactive) | 15.3 µM (inactive) | 14.3 µM (inactive) | > 10 µM (inactive) | 11.6 µM (inactive) | 11.6 µM (inactive) | 4.5 µM (inactive) | 7.87 µM (inactive) | 11 µM (inactive) | 17.7 µM (inactive) |
| C/C1=C\CC[C@@]2(C)O[C@@H]2C[C@@H]2[C@H](C/C(C)=C/CC1)OC(=O)[C@]21CO1 | > 100 µM (inactive) | > 100 µM (inactive) | 41.5 µM (inactive) | > 100 µM | > 100 µM (inactive) | > 100 µM (inactive) | > 100 µM (inactive) | > 100 µM (inactive) | 20.7 µM (inactive) | > 100 µM (inactive) | 51.5 µM (inactive) | > 100 µM (inactive) | > 100 µM (inactive) | – | > 100 µM (inactive) | > 100 µM (inactive) | > 100 µM (inactive) | 36.7 µM (inactive) | 63.8 µM (inactive) | > 100 µM (inactive) |
| CC(C)/C(Cl)=N/OC(NC(=O)Nc1ccc(Cl)c(Cl)c1)(C(F)(F)F)C(F)(F)F | 11.5 µM (inactive) | 16.7 µM (inactive) | 7.36 µM (inactive) | 13.2 µM | 2.54 µM (inactive) | 5.65 µM (inactive) | 15.5 µM (inactive) | 2.37 µM (inactive) | 24.5 µM (inactive) | 13.6 µM (inactive) | 1.72 µM (inactive) | 18.2 µM (inactive) | 19.8 µM (inactive) | 17.4 µM (inactive) | 19.2 µM (inactive) | – | 16.9 µM (inactive) | 3.56 µM (inactive) | 17.3 µM (inactive) | 18.2 µM (inactive) |
